This is an account of results in article PMC9774391 (ACS Omega, 2022).

One series has as its target AChE (Homo sapiens, UniProt P22303). The series can be described thus: biochemical. As to the method: (§1) According to the modified Ellman approach outlined in our team’s earlier work, the AChE and BChE inhibitory activities of the obtained compounds were evaluated.[18]−[21]
In the next series the target is BChE (Homo sapiens, UniProt P06276). Nature of the series: biochemical. As to the method: as §1
Chain of BChE (P06276 29-602): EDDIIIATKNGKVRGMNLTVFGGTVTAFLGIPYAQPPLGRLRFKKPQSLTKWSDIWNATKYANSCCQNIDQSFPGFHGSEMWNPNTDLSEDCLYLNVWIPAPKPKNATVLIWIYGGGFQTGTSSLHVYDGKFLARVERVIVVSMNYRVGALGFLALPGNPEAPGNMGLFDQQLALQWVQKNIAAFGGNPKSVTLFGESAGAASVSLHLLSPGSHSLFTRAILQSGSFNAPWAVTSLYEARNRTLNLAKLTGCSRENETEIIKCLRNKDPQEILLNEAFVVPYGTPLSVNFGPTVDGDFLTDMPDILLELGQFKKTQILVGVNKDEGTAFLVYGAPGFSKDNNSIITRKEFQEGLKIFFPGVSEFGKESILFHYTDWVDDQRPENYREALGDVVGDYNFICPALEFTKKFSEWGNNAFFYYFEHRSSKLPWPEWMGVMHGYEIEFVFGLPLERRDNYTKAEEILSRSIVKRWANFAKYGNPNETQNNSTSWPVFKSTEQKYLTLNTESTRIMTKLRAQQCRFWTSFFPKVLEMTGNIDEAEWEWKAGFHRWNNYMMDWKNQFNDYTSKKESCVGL
The next series deals with T1, MAO-A (Homo sapiens, UniProt P21397).
T1 sequence (P21397 1-527): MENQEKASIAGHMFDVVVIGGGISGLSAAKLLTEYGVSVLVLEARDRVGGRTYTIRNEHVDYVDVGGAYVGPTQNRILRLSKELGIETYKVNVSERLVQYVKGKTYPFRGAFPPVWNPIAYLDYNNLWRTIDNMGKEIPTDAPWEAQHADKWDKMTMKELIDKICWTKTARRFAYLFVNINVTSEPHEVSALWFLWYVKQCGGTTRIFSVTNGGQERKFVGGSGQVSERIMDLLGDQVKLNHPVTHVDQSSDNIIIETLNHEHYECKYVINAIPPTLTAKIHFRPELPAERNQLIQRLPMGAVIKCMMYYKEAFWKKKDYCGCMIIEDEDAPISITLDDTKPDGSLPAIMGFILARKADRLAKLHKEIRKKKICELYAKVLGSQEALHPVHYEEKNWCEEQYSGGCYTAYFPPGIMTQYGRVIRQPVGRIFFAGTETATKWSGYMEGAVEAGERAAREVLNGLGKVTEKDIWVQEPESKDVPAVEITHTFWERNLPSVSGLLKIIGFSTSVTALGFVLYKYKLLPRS
The series can be described thus: In vitro MAO-A inhibition assay (fluorometric). The class given is biochemical.

For series [1], the target named is T2, MAO-B (Homo sapiens, UniProt P27338).
T2 sequence (P27338 1-520): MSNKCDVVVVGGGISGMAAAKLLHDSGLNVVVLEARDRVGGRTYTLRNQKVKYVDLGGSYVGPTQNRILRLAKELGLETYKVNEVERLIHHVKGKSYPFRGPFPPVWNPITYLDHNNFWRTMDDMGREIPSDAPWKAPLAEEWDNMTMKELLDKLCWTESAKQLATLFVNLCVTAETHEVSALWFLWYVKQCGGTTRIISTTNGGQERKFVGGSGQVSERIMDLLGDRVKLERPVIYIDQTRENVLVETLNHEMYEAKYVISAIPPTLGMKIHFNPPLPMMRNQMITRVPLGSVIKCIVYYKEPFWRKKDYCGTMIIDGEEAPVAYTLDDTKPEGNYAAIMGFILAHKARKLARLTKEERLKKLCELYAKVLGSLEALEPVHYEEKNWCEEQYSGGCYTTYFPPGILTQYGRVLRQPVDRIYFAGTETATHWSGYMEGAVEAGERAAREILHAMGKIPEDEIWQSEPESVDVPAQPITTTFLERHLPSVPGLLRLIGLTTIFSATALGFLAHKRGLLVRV
The series can be described thus: In vitro MAO-B inhibition assay (fluorometric). The class given is biochemical.

Series [2] deals with NIH/3T3 mouse embryonic fibroblast cell line. The series can be described thus: Cytotoxicity test (MTT). The format is cell-based. Particulars: NIH/3T3 mouse fibroblast healthy cell line. As to the method: (§2) The NIH/3T3 cells were incubated according to the manufacturer’s recommendations. In 96-well plates, NIH/3T3 cells were seeded at a density of 1 × 10^4 cells per well. The MTT test was conducted in line with the previously mentioned standards.[19],[22],[23],[28],[30]

The target in series [3] is T2, MAO-B. The series can be described thus: Enzyme kinetics on MAO-B (Lineweaver–Burk). The class given is biochemical. How it is done: The experimental procedures used in the kinetic investigations were identical to those used in the inhibition experiments. […]. Acetylthiocholine iodide (ATC) and butyrylthiocholine iodide (BTC) solutions were utilized as the substrates for the ChE enzymes, with serial dilutions at six different concentrations (600, 300, 150, 75, 37.5, and 18.75 μM). The tyramine substrate solution (concentrations ranging from 20 to 0.625 μM) was produced for the MAO enzymes at six different concentrations. Separate measurements were conducted both with and without an inhibitor. Using the Microsoft Office Excel 2013 program, the resulting absorbance values were compared to various substrate concentrations, and Lineweaver–Burk plots were created.[19]−[22]
The absorbance data from the experiments and the substrate concentrations were used to generate Lineweaver–Burk plots. The graphic’s x-axis stands for 1/[S] […] […]. The intersection of these four lines on the diagram was used to define the type of substrate and inhibitor reaction against the enzyme.
Reversible and irreversible inhibition of enzymes are the two categories that inhibition is commonly subdivided into. In irreversible inhibition, the inhibitor either creates a recalcitrant complex structure or establishes a covalent bond with the enzyme. […]

A short description of series [4]: DPPH free-radical scavenging activity assay. To be noted: serial dilution 10^–3–10^–9 M; read-out: IC50 on DPPH antioxidant activity. The procedure, abridged: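 Test solutions were mixed with an equal volume of DPPH solution (9.86 mg in 25 mL methanol), with methanol as blank and methanol plus DPPH as control. Absorbance was read at 517 nm after incubation.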
On the technique in general: Loss of DPPH colour is used to gauge radical scavenging.

The next series deals with T3, Beta Amyloid 1–42 (Aβ42) (Homo sapiens, UniProt P05067).
T3 construct: The Beta Amyloid 1–42 (Aβ42) Ligand Screening Assay kit; purchased BioVision, Milpitas, CA
T3 sequence (P05067 672-713 limits assumed): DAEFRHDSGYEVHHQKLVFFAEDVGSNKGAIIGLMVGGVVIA
Nature of the series: Beta Amyloid 1–42 (Aβ42) inhibitor screening assay. The class given is biochemical. To be noted: 10^–4 M; read-out: % β-amyloid plaque inhibition. The source says:
The Beta Amyloid 1–42 (Aβ42) Ligand Screening Assay kit (BioVision, Milpitas, CA) technique based on the fluorometric approach served as the basis for the experimental process.[21],[28],[29]

A short description of the next series: Cytotoxicity test (MTT). The format is cell-based. Particulars: NIH/3T3 mouse embryonic fibroblast cells (ATCC CRL-1658), NIH/3T3 mouse fibroblast healthy cell line. How it is done:
as §2

Chain of AChE (P22303 32-614): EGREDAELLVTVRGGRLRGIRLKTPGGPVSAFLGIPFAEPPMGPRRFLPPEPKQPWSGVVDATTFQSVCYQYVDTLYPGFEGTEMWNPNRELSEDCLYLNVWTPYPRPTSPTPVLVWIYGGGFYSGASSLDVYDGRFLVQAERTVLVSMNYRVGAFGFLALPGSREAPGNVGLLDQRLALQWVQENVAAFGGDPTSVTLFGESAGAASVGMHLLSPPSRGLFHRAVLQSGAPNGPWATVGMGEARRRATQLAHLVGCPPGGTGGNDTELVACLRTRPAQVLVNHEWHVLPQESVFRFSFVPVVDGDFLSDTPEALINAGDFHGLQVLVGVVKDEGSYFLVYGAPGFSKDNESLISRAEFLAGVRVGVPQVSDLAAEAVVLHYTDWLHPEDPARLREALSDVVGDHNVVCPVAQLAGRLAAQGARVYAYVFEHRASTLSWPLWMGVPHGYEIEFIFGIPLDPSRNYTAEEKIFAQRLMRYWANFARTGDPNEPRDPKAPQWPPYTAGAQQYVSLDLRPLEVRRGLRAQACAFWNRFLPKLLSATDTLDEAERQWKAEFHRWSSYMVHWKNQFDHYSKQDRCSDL

With `COc1cc2c(cc1OC)C(=O)C(=Cc1ccc(NC(=O)CN3CCN(CCN(C)C)CC3)cc1)C2` [D24], the half-maximal inhibitory concentration (IC50) (commonly the point on the concentration scale where inhibition reaches its midpoint) worked out at 46.9 ± 1.9 nM against AChE and 18640 ± 119 nM in series [2]. Further, the “human AChE inhibition (%)” value is recorded as 93.224 ± 1.719% at AChE (10^–3 M); 90.486 ± 1.298% at AChE (10^–4 M); 82.415 ± 1.102% at AChE (10^–5 M); 72.846 ± 1.267% at AChE (10^–6 M); 63.963 ± 1.088% on AChE (10^–7 M); 41.281 ± 0.623% at AChE (10^–8 M). Moreover, the “human AChE inhibition (%)” value at AChE (10^–9 M) was determined as 18.773 ± 0.411%. The “human BChE inhibition (%)” value on BChE (10^–3 M) came to 97.932 ± 2.016%; at BChE (10^–4 M), 49.401 ± 0.559%. The “human MAO-A inhibition (%)” value on MAO-A (10^–3 M) came to 64.076 ± 0.323%; at MAO-A (10^–4 M), 25.257 ± 0.621%. Moreover, the “human MAO-B inhibition (%)” value came to 75.628 ± 1.426% on MAO-B [1] (10^–3 M) and 46.324 ± 0.521% on MAO-B [1] (10^–4 M).
Take `COc1ccc2c(c1)C/C(=C\c1ccc(NC(=O)CN(C)CCCN(C)C)cc1)C2=O` [D37]: the IC50 against AChE is 48.2 ± 1.7 nM; at BChE it was 83.9 ± 3.4 nM; at MAO-B [1], 31.2 ± 0.8 nM; in [4], 179 ± 7 nM; in “Cytotoxicity test (MTT)”, 2290 ± 136 nM. The inhibition (usually the relative decrease from the control value, in per cent) at 1000 µM stood at 92.5 ± 1.57% against AChE (10^–3 M), 94.2 ± 1.39% against BChE (10^–3 M), 96.51 ± 0.736% at MAO-A (10^–3 M) and 98.4 ± 1.63% against MAO-B [1] (10^–3 M). Further, the inhibition at 100 µM is 87.6 ± 1.68% at AChE (10^–4 M); 89.7 ± 1.25% at BChE (10^–4 M); 37.8 ± 0.96% against MAO-A (10^–4 M); 91.6 ± 1.24% on MAO-B [1] (10^–4 M); greater than 50% at Beta Amyloid 1–42 (Aβ42). The inhibition at 10 µM is 83.5 ± 1.23% against AChE (10^–5 M), 82.7 ± 1.01% against BChE (10^–5 M) and 85.5 ± 1.12% against MAO-B [1] (10^–5 M). For the same compound, the inhibition at 1 µM against AChE (10^–6 M) turned out to be 75.1 ± 1.08%; at BChE (10^–6 M) it was 71.4 ± 1.35%; against MAO-B [1] (10^–6 M), 78.3 ± 1.07%. Further, the inhibition at 0.1 µM was 61.5 ± 0.965% at AChE (10^–7 M), 59.3 ± 0.754% against BChE (10^–7 M) and 72.2 ± 1.1% against MAO-B [1] (10^–7 M). Besides, the values for the inhibition at 0.01 µM on AChE (10^–8 M), at BChE (10^–8 M) and on MAO-B [1] (10^–8 M) were 39.5 ± 0.489%, 32.5 ± 0.355% and 40.1 ± 0.561%, respectively. Besides, the inhibition at 0.001 µM against AChE (10^–9 M) came to 19.7 ± 0.508%; against BChE (10^–9 M), 18.5 ± 0.471%; against MAO-B [1] (10^–9 M), 18.2 ± 0.418%. For the same compound, the “type of inhibition of MAO-B” value at MAO-B [3] (Lineweaver–Burk plots) is recorded as “noncompetitive inhibition”. The Ki – broadly, a measure of affinity in units of concentration, obtained from inhibition or displacement – at MAO-B [3] (secondary plot of Lineweaver–Burk data, read-out: steady-state inhibition constant (Ki), MAO-B) worked out at 29.7 nM.
